Reference: ChEMBL document CHEMBL1201862, “PubChem BioAssay data set” (2004)
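All cell lines were grown in 96-well plates and treated with compound for 48 hours. The concentration for 50% growth inhibition is given as GI50.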 The source made the active and inactive calls. No stated cut-off is given here; in the data, active = GI50 up to about 1.1 µM and inactive = higher.

What was measured:
Assay in all cases: NCI-60 cell line screen, 48 h
[1] = test system: M19-MEL
[2] = test system: DLD-1
[3] = test system: DMS-114
[4] = test system: LXFL 529
[5] = test system: KM-20L2
[6] = test system: DMS-273
[7] = test system: XF498
[8] = test system: HOP-18
[9] = test system: RXF 631

Measured: GI50

O=C1CCC(Cl)=CC2CCCN12 (stereo not drawn)
inactive: [1] > 100 µM | [2] > 100 µM | [3] > 100 µM | [4] > 100 µM | [5] > 100 µM

OC[C@H]1O[C@@H](n2cnc3c(S)ncnc32)[C@H](O)[C@@H]1O [THIOINOSINE]
inactive: [1] > 2500 µM | [6] 971 µM | [3] 1830 µM | [7] > 1260 µM | [8] 2070 µM | [5] > 2500 µM

O=c1[nH]c(=O)n(C2CC(O)C(CS)O2)cc1F (stereo not drawn)
inactive: [1] 77.6 µM | [2] > 100 µM | [3] > 100 µM | [7] > 100 µM | [8] > 100 µM | [4] > 10 µM | [5] 78.9 µM

C=CCNC(=S)OCCCCCCCCCC
inactive: [1] 17.6 µM | [6] 19.9 µM | [2] 16.4 µM | [3] 17 µM | [7] 16 µM | [8] 22.3 µM | [4] 14.9 µM | [5] 18.6 µM

CC1C=CC(C(N)C(=O)O)O1 (stereo not drawn)
inactive: [1] > 100 µM | [6] > 100 µM | [2] > 100 µM | [3] > 100 µM | [7] > 100 µM | [4] > 100 µM | [5] > 100 µM

CCc1cccc(C(C)CC)c1NC(=O)CC1C(=O)Nc2ccccc2S1(=O)=O (stereo not drawn)
inactive: [1] 26.9 µM | [6] 13.6 µM | [2] 13.6 µM | [3] 13.5 µM | [7] > 100 µM | [4] 11.2 µM | [5] 25.2 µM

O=C(CC1C(=O)Nc2ccccc2[S+]1[O-])Nc1cc(Cl)ccc1Cl (stereo not drawn)
inactive: [1] > 100 µM | [6] > 100 µM | [2] > 100 µM | [3] > 100 µM | [7] > 100 µM | [4] > 100 µM | [9] > 100 µM | [5] > 100 µM

FC(F)(F)c1cccc2ns[s+]c12
inactive: [1] > 100 µM | [6] > 100 µM | [2] 35 µM | [7] > 100 µM | [8] > 100 µM | [4] > 100 µM | [9] > 100 µM | [5] > 100 µM

CC(=O)OCC1OC(N=[N+]=[N-])C(OC(C)=O)C(OC(C)=O)C1OC1OC(COC(C)=O)C(OC(C)=O)C(OC(C)=O)C1OC(C)=O (stereo not drawn)
inactive: [1] > 100 µM | [6] > 100 µM | [3] > 100 µM | [7] > 100 µM | [4] > 100 µM | [9] > 100 µM | [5] > 100 µM

CCOc1nc(OCC)nc(-c2cccn2-c2ccccc2)n1
inactive: [1] 37.2 µM | [6] 30.1 µM | [3] 27.7 µM | [9] 57.5 µM

COc1ccc(-c2c(C3=NCCCN3)nnn2-c2ccccc2)cc1
inactive: [1] > 100 µM | [6] > 100 µM | [2] > 100 µM | [3] > 100 µM | [7] > 100 µM | [8] > 100 µM | [4] > 100 µM | [5] > 100 µM

CN1CCc2c1nc(-c1ccccc1)c1c2N(C)CC1
inactive: [1] > 100 µM | [6] 53.6 µM | [2] 45.3 µM | [8] 3.82 µM | [4] 52.2 µM | [5] 52.8 µM

Nn1c(S)nnc1N/N=C1/C(=O)Nc2c(Cl)cc(Cl)cc21
inactive: [1] > 100 µM | [2] > 100 µM | [3] > 100 µM | [8] > 100 µM | [4] 59.7 µM | [5] 81.8 µM

CCCCCCCCCCCCCCCCCCCCCCC(=O)N[C@H]1CCc2cc(OC)c(OC)c(OC)c2-c2ccc(SC)c(=O)cc21
inactive: [1] 50 µM | [6] 27.9 µM | [7] 20.8 µM | [4] 41.9 µM | [9] 14.1 µM | [5] 18.7 µM
